Values joined by “and” are separate entries in the source; they are usually repeats but may differ in a detail not shown here. Equal values may be shown once.
Tests used:
[1] = tested on: murine B-16 melanoma cells; experiment: Initial rate of cell proliferation (IRCP), B-16 cells; assay type: cell-based
Protocol: The study was conducted on two continuous cell cultures growing in the form of a monolayer in a tissue culture (on murine B-16 melanoma cells and human M-5 melanoma cells). IN was administered at concentrations 70-700 IU/ml. Dicarbamine (D) was transferred into stock solution (1.000 μM), sterilized through filters with 0.22 μm pore diameter and then diluted to concentrations 0.01 and 1.0 μM.
The effect of preparations on cells was assessed on the basis of initial rate of cell proliferation (IRCP). This index (IRCP), which is usually called colony rate growth, was determined by numbering the number of cells in micro colonies during the first days following affection in “test” (with preparations) and “control” (without preparations) dishes, by analyzing 50 colonies in each of them. Each “point” included […] three Petri dishes with growing cell colonies in adding specific concentrations of preparations under study. Growth rate of colonies (in %) was calculated according to the formula: […]
Cell numbers in micro colonies were calculated for every “point”. Toxicity of preparations in the selected range of concentrations was judged by cell survival, which was determined by the ratio between numbers of the colonies grown in “test” and “control” dishes.

[2] = tested on: stage III-IV ovarian cancer; experiment: Efficacy of therapy after two chemotherapy courses; assay type: in vivo, human
Protocol: Efficacy of therapy was assessed in groups of patients following two courses of the chemotherapy with or without Dicarbamine according to the above described scheme. Efficacy was assessed according to the generally accepted parameters: CR—complete remission, PR—partial remission, SB—stabilization; and Progr. —progression.

[3] = tested on: M-6 melanoma; experiment: Melanin genesis intensity in M-6 melanoma cells (electronic microscopy); assay type: in vivo, human; conditions: for Average amount of melanosomes per a cell / MGII / Number of cells with melanosomes (per 500 cells): 1.0 mg/kg daily
Protocol: The study was conducted on 10-12 week old thymus free (nude) female Balb/C mice weighing 20-22 grams (breeding of the Russian Cancer Research Center (RCRC) named after N. N. Blokhin of the Russian Academy of Medical Sciences (RAMS)). A human melanoma strain earlier obtained from primary clinical material was taken from the bank of tumor strains of the RCRC of the RAMS for transplantation to thymus free “nude” mice. Tumor was disintegrated by Versen solution with vital Trypan blue staining and inoculated subcutaneously to mice in the amount of 1.6 million cells per mouse.
Dicarbamine was administered to mice intragastrically using a metal probe daily at dose 1.0 mg/kg beginning 4 days before the tumor inoculation and thereafter for 10-11 days (administration course up to 15 days). The mice were sacrificed with ether anesthesia in 12, 24 and 48 hours after the last administration.
The effect of Dicarbamine on melanoma cell differentiation was assessed on the basis of the intensity of melanin genesis by counting the number of cells with melanin in the tumor slices. With this goal, tumors were excised from the mice, placed into glutaraldehyde and histologically processed for electronic microscopy. The Melanin Genesis Intensity Index (MGII), which reflects the degree of cell differentiation, was calculated in the prepared slices according to the following equation: MGII=NCM×NM,
wherein: NCM is the number of cells containing melanosomes;
NM is average number of melanosomes per a cell.

[4] = Peripheral blood leukocytes formula under Cyclophosphamide; assay type: in vivo, mice; conditions: mouse, in vivo
Description: Two groups of mice are used.

[5] = tested on: hematopoietic cells of the bone marrow; experiment: Electronic microscopy of bone marrow of ovarian cancer patients during chemotherapy; assay type: in vivo, human; conditions: Cyclophosphane 600 mg/m^2 + Carboplatin 400 mg/m^2 along with Dicarbamine 100 mg
Protocol: The patients were divided into two equal groups: group I—patients who received the chemotherapy alone and group II—patients who received the chemotherapy along with Dicarbamine administration. […] The average chemotherapy course of one patient included 6 courses without Dicarbamine and 5.7 courses with Dicarbamine. In group II patients received the chemotherapy along with Dicarbamine dosing at a single dose 100 mg beginning 5 days before the first course and then until the beginning of next course at the same dose. […] Puncture biopsy of the bone marrow and peripheral blood for electronic microscopy were taken from patients prior to the chemotherapy and at the end of treatment course with Dicarbamine or without it. Fresh bone marrow puncture biopsies were placed on a slide plate and stirred many times with a stirring rod until small dense fragments were obtained. […] Semi-thin and ultra-thin slices were prepared on the LKB-III ultratome (Sweden). The semi-thin slices were stained with Methylene or Toluidine blue, ultra-thin slices were stained with an aqueous solution of uranyl acetate and lead citrate.

O=C(O)CCCC(=O)NCCc1c[nH]cn1 [Dicarbamine]
toxicity according to the survival index ([1]; B-16 cells): does not show toxicity
Initial rate of cell proliferation ([1]; D 0.01 μM, 48 hours): 52.9%
Initial rate of cell proliferation ([1]; D 0.01 μM, 72 hours): 61.0%
Initial rate of cell proliferation ([1]; D 1.0 μM, 48 hours): 44.6%
Initial rate of cell proliferation ([1]; D 1.0 μM, 72 hours): 44.6% and 43.6%
Initial rate of cell proliferation ([1]; IN 70.0 IU/ml + D 1.0 μM, 72 hours): 26.1%
Initial rate of cell proliferation ([1]; IN 700.0 IU/ml + D 0.01 μM, 48 hours): 24.9%
Initial rate of cell proliferation ([1]; IN 700.0 IU/ml + D 0.01 μM, 72 hours): 22.0%
Initial rate of cell proliferation ([1]; IN 700.0 IU/ml + D 1.0 μM, 48 hours): 21.5%
Initial rate of cell proliferation ([1]; IN 700.0 IU/ml + D 1.0 μM, 72 hours): 16.0%
CR [2]: 26.6%
CR, number of patients [2]: 4
PR [2]: 46.6%
PR, number of patients [2]: 7
Progr. [2]: 13.3%
Progr., number of patients [2]: 2
SB [2]: 13.5%
SB, number of patients [2]: 2
tumor growth control (CR+PR) [2]: 73.2%
Average amount of melanosomes per a cell ([3]; 12 hours since withdrawal): 28.0
MGII ([3]; 12 hours since withdrawal): 9.8
Number of cells with melanosomes (per 500 cells) ([3]; 12 hours since withdrawal): 175.0
Average amount of melanosomes per a cell ([3]; 24 hours since withdrawal): 35.0
MGII ([3]; 24 hours since withdrawal): 14.7
Number of cells with melanosomes (per 500 cells) ([3]; 24 hours since withdrawal): 210.0
Average amount of melanosomes per a cell ([3]; 48 hours since withdrawal): 42.0
MGII ([3]; 48 hours since withdrawal): 19.0
Number of cells with melanosomes (per 500 cells) ([3]; 48 hours since withdrawal): 227.0
average increase of M-6 melanoma tumor cell differentiation degree (MGII) ([3]; following a 15 day course): 2.2 fold
increase in the number of cells comprising melanosomes ([3]; following a 15 day course): 1.3 fold
increase in the number of melanosomes ([3]; following a 15 day course): 1.3 fold
MGII index increase vs control ([3]; in 12 hours): 1.9 fold
MGII index increase vs control ([3]; in 24 hours): 2.4 fold
MGII index increase vs control ([3]; in 48 hours): 2.3 fold
Myelocytes [4]: 0 in mm^3
cells with apoptosis signs in bone marrow puncture biopsies [5]: rarely observed

— patent US7759313B2, “Induction method for cell differentiation” (Obschetstvo S Ogranichennoi Otvetstvennostiyu …, priority 2002, dated 2010)
